Laboratory results taken from ChEMBL document CHEMBL1148159, “An analysis of phakellin and oroidin structures stimulated by further study of an Agelas sponge” (J Nat Prod, 2004).

Biological target: T1, Polyunsaturated fatty acid lipoxygenase ALOX12 (Homo sapiens, UniProt P18054)
T1 sequence (P18054 whole entry): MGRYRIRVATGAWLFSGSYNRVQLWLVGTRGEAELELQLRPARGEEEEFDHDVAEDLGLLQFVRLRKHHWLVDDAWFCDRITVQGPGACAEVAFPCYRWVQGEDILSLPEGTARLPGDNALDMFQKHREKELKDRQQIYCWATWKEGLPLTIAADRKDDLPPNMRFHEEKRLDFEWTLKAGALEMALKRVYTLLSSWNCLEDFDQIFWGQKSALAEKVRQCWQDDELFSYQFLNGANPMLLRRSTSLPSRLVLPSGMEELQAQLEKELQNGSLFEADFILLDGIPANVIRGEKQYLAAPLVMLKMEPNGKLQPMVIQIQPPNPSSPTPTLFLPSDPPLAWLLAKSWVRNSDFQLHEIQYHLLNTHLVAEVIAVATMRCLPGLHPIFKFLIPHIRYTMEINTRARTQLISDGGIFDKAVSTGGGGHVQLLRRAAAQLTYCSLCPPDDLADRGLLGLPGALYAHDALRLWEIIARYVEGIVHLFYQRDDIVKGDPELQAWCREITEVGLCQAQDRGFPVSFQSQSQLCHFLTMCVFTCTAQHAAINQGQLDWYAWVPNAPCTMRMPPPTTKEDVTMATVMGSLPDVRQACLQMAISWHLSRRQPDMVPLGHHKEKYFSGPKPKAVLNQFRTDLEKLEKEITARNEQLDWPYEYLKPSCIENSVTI
Assay: Inhibition of human 12-lipoxygenase

- IC50: 10.7 µM
SMILES: CN1C(N)=N[C@]23CCCN2C(=O)c2cc(Br)c(Br)n2[C@H]13
